Measurements as given in the supplement of paper PMC6470124.

Columns and labels:
[1] = absolute recovery over vacuum-assisted evaporative concentration; higher = better recovery; conditions: enrichment method: VEC
Outline: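 Absolute recovery was calculated as (response ratio pre − unspiked)/(post − unspiked) × 100 from averages of ≥ 2 replicates. Influent (6 mL), effluent (15 mL), and surface and nanopure water (60 mL) samples were spiked with standards before concentration, after concentration, or not at all, at 200 ng/L for nanopure and surface water or 1000 ng/L for wastewater, with class- and compound-specific adjustments. Samples were evaporated at 55 °C and 20 mbar to about 0.3 mL, made up to 0.4 mL and centrifuged, then internal standards were added before LC-HRMS/MS analysis.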

[2] = absolute recovery over mixed-bed multilayer solid-phase extraction; higher = better recovery; conditions: enrichment method: SPE
Outline: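 Wastewater (100–250 mL, adjusted to pH 6.5 and glass-fibre filtered) or 1000 mL unfiltered nanopure water was loaded on a three-layer mixed-bed cartridge and eluted with basic then acidic ethyl acetate/methanol. Standards were spiked before extraction, after it, or not at all, at 200 ng/L (water) or 1000 ng/L (wastewater), with class exceptions. Internal standards were added afterwards, then LC-HRMS/MS ran in both ionisation modes. Absolute recovery compares background-corrected response ratios of pre- versus post-spiked samples, averaged over at least two replicates.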

[3] = LC retention time (Atlantis T3, 5-95% MeOH gradient, 0.1% formic acid); higher = more retained / less polar
Outline: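 Retention times were recorded for reference standards (purity ≥ 95%) on a polar reversed-phase C18 column (Atlantis T3, 3 × 150 mm, 3 μm) at 0.3 mL/min. Elution used water and methanol, each with 0.1% formic acid, in a gradient from 5 to 95% methanol over 17.5 min. Detection was by high-resolution tandem mass spectrometry on a QExactive Plus, with positive and negative electrospray in separate runs. Peaks were found and integrated in TraceFinder (5 ppm tolerance, at least three points per peak) and then checked by hand.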

Cc1[nH]c(=O)n(C(C)(C)C)c(=O)c1Cl [Terbacil]
absolute recovery ([1]; wastewater effluent): 102% | absolute recovery ([1]; wastewater influent): 105% | absolute recovery ([2]; nanopure water): 96.1% | absolute recovery ([2]; surface water): 96% | absolute recovery ([2]; wastewater effluent): 97.3% | absolute recovery ([2]; wastewater influent): 97.2% | LC retention time [3]: 17.6 min

Fc1ccc(Oc2ccnc3cc(Cl)cc(Cl)c23)cc1 [Quinoxyfen]
absolute recovery ([1]; wastewater effluent): 69.8% | absolute recovery ([2]; nanopure water): 63.7% | absolute recovery ([2]; surface water): 76.4% | absolute recovery ([2]; wastewater effluent): 78.1% | absolute recovery ([2]; wastewater influent): 53.1% | LC retention time [3]: 22.9 min

COc1ccc(C(=O)c2ccccc2)c(O)c1 [Benzophenon-3 (=2-Hydroxy-4-methoxybenzophenon)]
absolute recovery ([1]; wastewater effluent): 51.4% | absolute recovery ([1]; wastewater influent): 56.6% | absolute recovery ([2]; nanopure water): 100% | absolute recovery ([2]; surface water): 111% | absolute recovery ([2]; wastewater effluent): 100% | absolute recovery ([2]; wastewater influent): 77.4% | LC retention time [3]: 20.7 min

Nc1ccc(S(=O)(=O)[N-]c2ccccn2)cc1 [Sulfapyridin]
absolute recovery ([1]; wastewater effluent): 103% | absolute recovery ([1]; wastewater influent): 95.5% | absolute recovery ([2]; nanopure water): 98.5% | absolute recovery ([2]; surface water): 93.6% | absolute recovery ([2]; wastewater effluent): 88.1% | absolute recovery ([2]; wastewater influent): 96.2% | LC retention time [3]: 10.7 min

C#CC[NH2+]C(C)Cc1ccccc1 (configuration not stated) [Nordeprenyl]
absolute recovery ([1]; wastewater effluent): 38.9% | absolute recovery ([1]; wastewater influent): 11.4% | absolute recovery ([2]; nanopure water): 74.8% | absolute recovery ([2]; surface water): 84.7% | absolute recovery ([2]; wastewater effluent): 80.2% | absolute recovery ([2]; wastewater influent): 78.3% | LC retention time [3]: 11.5 min

CCCCc1c(C)nc(NCC)nc1OS(=O)(=O)N(C)C [Bupirimate]
absolute recovery ([1]; wastewater effluent): 105% | absolute recovery ([1]; wastewater influent): 117% | absolute recovery ([2]; nanopure water): 83.8% | absolute recovery ([2]; surface water): 85.1% | absolute recovery ([2]; wastewater effluent): 93.3% | absolute recovery ([2]; wastewater influent): 74.8% | LC retention time [3]: 19.3 min

Nc1c(Cl)c(F)nc(OCC(=O)[O-])c1Cl [Fluroxypyr (free acid)]
absolute recovery ([1]; wastewater effluent): 104% | absolute recovery ([1]; wastewater influent): 95.6% | absolute recovery ([2]; nanopure water): 97% | absolute recovery ([2]; surface water): 95.8% | absolute recovery ([2]; wastewater effluent): 91.7% | absolute recovery ([2]; wastewater influent): 89.2% | LC retention time [3]: 17.1 min

COC(=O)C1C(OC(=O)c2ccccc2)CC2CCC1[NH+]2C (configuration not stated) [Cocaine]
absolute recovery ([1]; wastewater effluent): 71.1% | absolute recovery ([1]; wastewater influent): 62.2% | absolute recovery ([2]; nanopure water): 97.2% | absolute recovery ([2]; surface water): 96.4% | absolute recovery ([2]; wastewater effluent): 93.8% | absolute recovery ([2]; wastewater influent): 94.5% | LC retention time [3]: 12.2 min

CNC(=O)ON=CC(C)(C)SC [Aldicarb]
absolute recovery ([1]; wastewater effluent): 99.1% | absolute recovery ([1]; wastewater influent): 91.7% | absolute recovery ([2]; nanopure water): 88.2% | LC retention time [3]: 16 min

C=C1CC2C(CCC3(C)C(=O)CCC23)C2(C)C=CC(=O)C=C12 (configuration not stated) [Exemestan]
absolute recovery ([1]; wastewater effluent): 100% | absolute recovery ([1]; wastewater influent): 71.7% | absolute recovery ([2]; nanopure water): 91.6% | absolute recovery ([2]; surface water): 96% | absolute recovery ([2]; wastewater effluent): 93.2% | absolute recovery ([2]; wastewater influent): 98.3% | LC retention time [3]: 19.6 min

C[NH+](C)CCC(c1ccccc1)c1ccccn1 (configuration not stated) [Pheniramine]
absolute recovery ([1]; wastewater effluent): 113% | absolute recovery ([1]; wastewater influent): 87.2% | absolute recovery ([2]; nanopure water): 87.9% | absolute recovery ([2]; surface water): 93.7% | absolute recovery ([2]; wastewater effluent): 91.7% | absolute recovery ([2]; wastewater influent): 86.8% | LC retention time [3]: 11 min

CC(=O)Nc1c(I)c(C(=O)[O-])c(I)c(C(=O)NCCO)c1I [Ioxitalamic-acid]
absolute recovery ([1]; wastewater effluent): 103% | absolute recovery ([1]; wastewater influent): 101% | absolute recovery ([2]; nanopure water): 59.6% | absolute recovery ([2]; surface water): 65.7% | absolute recovery ([2]; wastewater effluent): 76% | absolute recovery ([2]; wastewater influent): 61.4% | LC retention time [3]: 9.16 min

CC(C)N(Cc1ccccc1)C(=O)C(C)(C)C [Tebutam]
absolute recovery ([1]; wastewater effluent): 52.3% | absolute recovery ([1]; wastewater influent): 46.1% | absolute recovery ([2]; nanopure water): 85.7% | absolute recovery ([2]; surface water): 88.7% | absolute recovery ([2]; wastewater effluent): 81.3% | absolute recovery ([2]; wastewater influent): 89.5% | LC retention time [3]: 20.5 min

C[NH2+]C(C)C(O)c1ccccc1 (configuration not stated) [Ephedrin]
absolute recovery ([1]; wastewater effluent): 107% | absolute recovery ([1]; wastewater influent): 99% | absolute recovery ([2]; nanopure water): 93.4% | absolute recovery ([2]; surface water): 93.3% | absolute recovery ([2]; wastewater effluent): 89.3% | absolute recovery ([2]; wastewater influent): 89.4% | LC retention time [3]: 9.53 min

COc1cc(OC)n2nc([N-]S(=O)(=O)c3c(C(F)(F)F)ccnc3OC)nc2n1 [Pyroxsulam]
absolute recovery ([1]; wastewater effluent): 103% | absolute recovery ([1]; wastewater influent): 103% | absolute recovery ([2]; nanopure water): 100% | absolute recovery ([2]; surface water): 97.7% | absolute recovery ([2]; wastewater effluent): 96.3% | absolute recovery ([2]; wastewater influent): 84.9% | LC retention time [3]: 16.7 min

O=P1(NCCCl)OCCCN1CCCl (configuration not stated) [Ifosfamid]
absolute recovery ([1]; wastewater effluent): 102% | absolute recovery ([1]; wastewater influent): 99.2% | absolute recovery ([2]; nanopure water): 109% | absolute recovery ([2]; surface water): 99.4% | absolute recovery ([2]; wastewater effluent): 92.9% | absolute recovery ([2]; wastewater influent): 89.1% | LC retention time [3]: 15.5 min

CN(C)C(=O)NC1CCCCCCC1 [Cycluron]
absolute recovery ([1]; wastewater effluent): 92.5% | absolute recovery ([1]; wastewater influent): 106% | absolute recovery ([2]; nanopure water): 91.4% | absolute recovery ([2]; surface water): 91.2% | absolute recovery ([2]; wastewater effluent): 89.2% | absolute recovery ([2]; wastewater influent): 94.2% | LC retention time [3]: 18.8 min

CCCCc1[nH+]cc(C=C(Cc2cccs2)C(=O)[O-])n1Cc1ccc(C(=O)[O-])cc1 [Eprosartan]
absolute recovery ([1]; wastewater effluent): 103% | absolute recovery ([1]; wastewater influent): 96.1% | absolute recovery ([2]; nanopure water): 97.1% | absolute recovery ([2]; surface water): 93.4% | absolute recovery ([2]; wastewater effluent): 93.6% | absolute recovery ([2]; wastewater influent): 94.2% | LC retention time [3]: 14.6 min

COc1cccc2c1C(=O)c1c(O)c3c(c(O)c1C2=O)CC(O)(C(O)CO)CC3OC1CC([NH3+])C(O)C(C)O1 (configuration not stated) [Doxorubicinol]
absolute recovery ([1]; wastewater effluent): 60.8% | absolute recovery ([1]; wastewater influent): 65.4% | absolute recovery ([2]; nanopure water): 70.4% | absolute recovery ([2]; surface water): 75.4% | absolute recovery ([2]; wastewater effluent): 73.7% | absolute recovery ([2]; wastewater influent): 79.4% | LC retention time [3]: 15.2 min

COC(=O)NC(C(=O)NC(Cc1ccccc1)C(O)CN(Cc1ccc(-c2ccccn2)cc1)NC(=O)C(NC(=O)OC)C(C)(C)C)C(C)(C)C (configuration not stated) [Atazanavir]
absolute recovery ([1]; wastewater effluent): 116% | absolute recovery ([1]; wastewater influent): 61.4% | absolute recovery ([2]; nanopure water): 87.6% | absolute recovery ([2]; surface water): 100% | absolute recovery ([2]; wastewater effluent): 95.5% | absolute recovery ([2]; wastewater influent): 95.1% | LC retention time [3]: 20.3 min

CC=CC(=O)N(CC)c1ccccc1C [Crotamiton]
absolute recovery ([1]; wastewater effluent): 59.5% | absolute recovery ([1]; wastewater influent): 70.2% | absolute recovery ([2]; nanopure water): 78.6% | absolute recovery ([2]; surface water): 70.5% | absolute recovery ([2]; wastewater effluent): 75.3% | absolute recovery ([2]; wastewater influent): 91.5% | LC retention time [3]: 19.3 min

O=C(NCC1CCCC[NH2+]1)c1cc(OCC(F)(F)F)ccc1OCC(F)(F)F (configuration not stated) [Flecainid]
absolute recovery ([1]; wastewater effluent): 105% | absolute recovery ([1]; wastewater influent): 106% | LC retention time [3]: 14.5 min

O=C([O-])C(F)(F)C(F)(F)C(F)(F)C(F)(F)C(F)(F)C(F)(F)C(F)(F)F [PFOA]
absolute recovery ([1]; wastewater effluent): 87.3% | absolute recovery ([1]; wastewater influent): 90% | LC retention time [3]: 20 min

O=C([O-])C(F)(F)C(F)(F)C(F)(F)C(F)(F)C(F)(F)F [PFHxA]
absolute recovery ([1]; wastewater effluent): 95.2% | absolute recovery ([1]; wastewater influent): 89.4% | LC retention time [3]: 18.8 min

CCc1cccc(CC)c1N(COC)C(=O)CS(=O)(=O)[O-] [Alachlor-ESA]
absolute recovery ([1]; wastewater influent): 106% | LC retention time [3]: 17.2 min

CNC(=C[N+](=O)[O-])NCCSCc1ccc(C[NH+](C)C)o1 [Ranitidin]
absolute recovery ([1]; wastewater effluent): 102% | absolute recovery ([1]; wastewater influent): 98.7% | LC retention time [3]: 8.64 min

CC1=C(C(=O)[O-])N2C(=O)C(NC(=O)C([NH3+])c3ccccc3)C2SC1 (configuration not stated) [Cefalexin]
absolute recovery ([1]; wastewater effluent): 65.2% | LC retention time [3]: 20.2 min

CC(C)CN(CC(O)C(Cc1ccccc1)NC(=O)OC1COC2OCCC12)S(=O)(=O)c1ccc(N)cc1 (configuration not stated) [Darunavir]
absolute recovery ([1]; wastewater effluent): 101% | absolute recovery ([1]; wastewater influent): 99.7% | LC retention time [3]: 18 min
